Source: ChEMBL document CHEMBL1146372, “Total synthesis of (R,R,R)- and (S,S,S)-schweinfurthin F: differences of bioactivity in the enantiomeric series” (Bioorg Med Chem Lett, 2007)

Assays:
[1] = Growth inhibition of NCI60 cells after 48 hrs; type: functional; settings: Homo sapiens, NCI60, 48 h
[2] = tested on: RPMI; test: Inhibition of DNA synthesis in human RPMI cells by [3H]-thymidine incorporation assay; type: functional, cell-based
[3] = tested on: U-251; test: Growth inhibition of U251 cells; type: functional; settings: Homo sapiens
[4] = tested on: Hs-578T; test: Growth inhibition of HS578T cells; type: functional; settings: Homo sapiens
[5] = tested on: SNB-75; test: Growth inhibition of SNB75 cells; type: functional; settings: Homo sapiens

For COc1cc(/C=C/c2cc3c(c(OC)c2)O[C@]2(C)CC[C@@H](O)C(C)(C)[C@H]2C3)cc(O)c1CC=C(C)C, the GI50 [1] was 870 nM.
COc1cc(/C=C/c2cc3c(c(OC)c2)O[C@@]2(C)CC[C@H](O)C(C)(C)[C@@H]2C3)cc(O)c1CC=C(C)C showed a GI50 [1] of 4600 nM.
Work on COc1cc(/C=C/c2cc(O)c(CC=C(C)C)c(O)c2)cc2c1O[C@@]1(C)CC[C@H](O)C(C)(C)[C@@H]1C2 (single isomer, unassigned) yielded an IC50 [2] of 3400 nM, a GI50 [3] of under 0.01 µM and a GI50 [4] of under 10 nM. The GI50 [1] was 130 nM and the GI50 [5] was 1700 nM.
Molecule COc1cc(/C=C/c2cc(O)c(C/C=C(\C)CCC=C(C)C)c(O)c2)cc2c1O[C@@]1(C)CC[C@H](O)C(C)(C)[C@@H]1C2 (single isomer, unassigned) has an IC50 [2] of 4500 nM and a GI50 [1] of 2200 nM.
Work on COc1cc(/C=C/c2cc(O)c(C/C=C(\C)CCC=C(C)C)c(O)c2)cc2c1O[C@]1(C)CC[C@@H](O)C(C)(C)[C@H]1C2 (single isomer, unassigned) [3-DEOXYSCHWEINFURTHIN B] yielded an IC50 [2] of 210 nM and a GI50 [1] of 870 nM.
COc1cc(/C=C/c2cc(O)c(CC=C(C)C)c(O)c2)cc2c1O[C@]1(C)CC[C@@H](O)C(C)(C)[C@H]1C2 (single isomer, unassigned) [SCHWEINFURTHIN F] showed an IC50 [2] of 580 nM, a GI50 [3] of 13 µM and a GI50 [4] of under 10 nM. The GI50 [1] was 410 nM and the GI50 [5] was 10 nM.
For CC(C)=CCC/C(C)=C/Cc1c(O)cc(/C=C/c2cc(O)c3c(c2)C[C@@H]2C(C)(C)[C@H](O)[C@H](O)C[C@@]2(C)O3)cc1O [SCHWEINFURTHIN A], the GI50 [1] was 360 nM.
COc1cc(/C=C/c2cc(O)c(C/C=C(\C)CCC=C(C)C)c(O)c2)cc2c1O[C@]1(C)C[C@@H](O)[C@@H](O)C(C)(C)[C@H]1C2 [SCHWEINFURTHIN B] gave a GI50 [1] of 810 nM.
With CC(C)=CCc1c(O)cc(/C=C/c2cc(O)c3c(c2)C[C@@H]2C(C)(C)[C@H](O)[C@H](O)C[C@@]2(C)O3)cc1O [VEDELIANIN] the GI50 [1] was 80 nM.
